Structures are written as SMILES.

Holding throughout (format): biochemical
In test [1] the target is T1, rat cathepsin K (Rattus norvegicus, UniProt O35186).
T1 construct: The proform of cathepsin K was converted to mature cathepsin K by brief exposure to pH 4; made in house; host or cells: baculovirus; Trichoplusia ni High Five cells (virus raised in Sf-9)
T1 sequence (O35186 115-329): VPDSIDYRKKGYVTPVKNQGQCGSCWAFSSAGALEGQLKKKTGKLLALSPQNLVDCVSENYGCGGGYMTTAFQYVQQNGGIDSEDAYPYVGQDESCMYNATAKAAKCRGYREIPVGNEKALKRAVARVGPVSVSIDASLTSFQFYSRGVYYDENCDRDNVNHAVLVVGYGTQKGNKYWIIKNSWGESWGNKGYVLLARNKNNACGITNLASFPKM
In words: Cathepsin K inhibition assay, fluorogenic substrate Cbz-Phe-Arg-AMC, progress curve method. As to conditions: Table 2; rat recombinant enzyme, pH 5.5, 30° C., 10 μM substrate; read-out: rCat K Ki. As for the experimental part:
(§1) All assays for cathepsin K were carried out with human and rat recombinant enzyme. Assays for cathepsins S Et V were also carried out with human recombinant enzyme. Assays for human cathepsins B. H. and L were carried out with enzyme, purchased from Athens Research and Technology, Inc., prepared from human liver tissue. Standard assay conditions for the determination of kinetic constants used a fluorogenic peptide substrate, typically (5S,8S)-13-amino-5-benzyl-13-imino-3-methylene-N-(4methyl-2-oxo-2H-chromen-7-yl)-6-oxo-1-phenyl-2-oxa-4,7,12-triazatridecane-8-carboxamide (Cbz-Phe-Arg-AMC), and were determined in 100 mM sodium acetate at pH 5.5 containing 10 mM dithiothreitol and 120 mM sodium chloride. A stock substrate solution of Cbz-Phe-Arg-AMC was prepared at a concentration of 50 mM in dimethyl sulfoxide. This substrate was diluted into the assay for a final substrate concentration of 10 μM in the rat cathepsin K, human cathepsin K, and human cathepsin B assays; a final substrate concentration of 5 μM in the human cathepsin L assay; and a final substrate concentration of 2 μM in the human cathepsin V assay.
(§2) All assays contained 10% dimethyl sulfoxide. […] All assays were conducted at 30° C. Product fluorescence (excitation at 360 nm; emission at 440 nm, (except cathepsin H which used excitation at 340 nm; emission at 420 nm)) was monitored with a PerSeptive Biosystems Cytofluor II fluorescence plate reader. Product progress curves were generated over 2.3 h monitoring the formation of 7-amino-4-methylcoumarin product (or β-naphthalamide for cathepsin H).
Scale-Up and Fermentation: The method of O'Reilly et al. (1994) was used for baculovirus expression with the following details. Two liters of Spodoptera frugiperda (Sf-9) cells (ATCC) were grown in Grace's Supplemented medium (Life Technologies) supplemented with 2 g/L glucose, 10% a fetal bovine serum (HyClone) and 0.10% pluronic F-68 (Life Technologies). Cells were grown in a 6 L shake flask at 150 RPM at 28° C. for 24 h to a density of 10^6 cells/mL, and then infected at a multiplicity of infection (MOI) of 0.1. The cells continued to grow for 72 h post-infection, before the virus was harvested by centrifugation at 1400× g for 30 min. Virus was titered as described (Summers and Smith, 1987).
One and one-half liters of Trichoplusia ni (T. ni) High Five (TM) cells [JRH Biosciences, Woodland, Calif. (adapted to suspension and serum-free medium)] grown in Excell 405 (TM) medium (JRH Biosciences) with 50 ug/mL gentamicin (Life Technologies) were added to a 15 L stirred tank reactor (Quark Enterprises, Inc) at a density of ˜0.5×10^6 cells/mL The cells were grown for 24 h at 28° C., 50 RPM, and 50% dissolved oxygen. Cells were then infected at a density of ˜10^6 cells/mL with an MOI of 1 and grown for 48 h post-infection. Media were separated from cells at a rate of 1 L/min using the Centritech 100 (TM) continuous-flow centrifuge (DuPont) operating at 200× g.
Protein Purification: Media (human and rat) were filtered through a Whatman 3 filter, and then loaded onto a 25 mL Poros HS II (26 mm×47 mm) cation exchange column equilibrated in 25 mM sodium acetate at pH 5.5 (equilibration buffer). The column was washed until the absorbance reached the baseline value, and then the protein was eluted with a linear gradient from 0-2 M sodium chloride in the equilibration buffer. Column fractions were analyzed by SDS-PAGE, N-terminal sequencing, and mass spectrometry. Fractions containing the proform of cathepsin K were pooled and frozen at −80° C. The proform was concentrated in an Amicon Centriprep 10 and fractionated with a Superdex 75 column (26 mm×600 mm, Pharmacia) equilibrated in 400 mM sodium chloride, 25 mM sodium acetate at pH 5.5.
Cathepsin K Activation: The proform of cathepsin K was converted to mature cathepsin K by brief exposure to pH 4 in the presence of 5 mM L-cysteine. […]

Test [2] deals with human cathepsin B (Homo sapiens, UniProt P07858). As to the kind of experiment: Cathepsin B inhibition assay, fluorogenic substrate Cbz-Phe-Arg-AMC. The note with it: Table 2; enzyme from human liver tissue, pH 5.5, 30° C., 10 μM substrate; read-out: hCat B Ki. The protocol:
as §1, §2
(§3) Potential inhibitors were evaluated using the progress curve method. Assays were carried out in the presence of variable concentrations of test compound. Reactions were initiated by addition of buffered solutions of inhibitor and substrate to enzyme. Data analysis was conducted according to one of two procedures depending on the appearance of the progress curves in the presence of inhibitors. For those compounds whose progress curves were linear, the enzymatic activity (RATE) was plotted against the concentration of test compound, including inhibitor concentration of zero ([I]=0), and the IC50 determined from a fit of equation 1 to the data, RATE=Vmax/(1+([I]/IC50)) (1) where Vmax is the best fit estimate of the maximal enzymatic activity. Ki values were calculated from IC50 values using equation 2 assuming a competitive model. [formula]

The target in test [3] is human cathepsin S (Homo sapiens, UniProt P25774). As to the kind of experiment: Cathepsin S inhibition assay, fluorogenic substrate Cbz-Val-Val-Arg-AMC. The note with it: Table 2; human recombinant enzyme, pH 5.5, 30° C., 10 μM substrate; read-out: hCat S Ki. As for the experimental part: as §1
A stock substrate solution of benzyl (1S)-1-{[((1S)-1-{[((1S)-4-{[amino(imino)methyl]amino}-1-{[(4-methyl-2-oxo-2H-chromen-7-yl)amino]carbonyl}butyl)amino]carbonyl}-2-methylpropyl)amino]carbonyl}-2-methylpropylcarbamate (Cbz-Val-Val-Arg-AMC) was prepared at a concentration of 10 mM in dimethyl sulfoxide. This substrate was diluted into the assay for a final substrate concentration of 10 μM in the human cathepsin S assay.
as §2, §3

The target in test [4] is human cathepsin L (Homo sapiens, UniProt P07711). In words: Cathepsin L inhibition assay, fluorogenic substrate Cbz-Phe-Arg-AMC. The note with it: Table 2; enzyme from human liver tissue, pH 5.5, 30° C., 5 μM substrate; read-out: hCat L Ki. The protocol:
as §1, §2, §3

Test [5] has as its target human cathepsin H (Homo sapiens, UniProt P09668). In words: Cathepsin H inhibition assay, substrate L-Arg-β-naphthalamide. As to conditions: Table 2; enzyme from human liver tissue, pH 5.5, 30° C.; read-out: hCat H Ki. The protocol: as §1
A stock substrate solution of (2S)-2-amino-5-{[amino(imino)methyl]amino}-N-(2-naphthyl)pentanamide hydrochloride (L-Arg-β-naphthalamide.HCl) was prepared at a concentration of 10 mM in dimethyl sulfoxide. This substrate was diluted into the assay for a final substrate concentration of […] in the cathepsin H assay.
as §2, §3

Chain of human cathepsin S (P25774 115-331): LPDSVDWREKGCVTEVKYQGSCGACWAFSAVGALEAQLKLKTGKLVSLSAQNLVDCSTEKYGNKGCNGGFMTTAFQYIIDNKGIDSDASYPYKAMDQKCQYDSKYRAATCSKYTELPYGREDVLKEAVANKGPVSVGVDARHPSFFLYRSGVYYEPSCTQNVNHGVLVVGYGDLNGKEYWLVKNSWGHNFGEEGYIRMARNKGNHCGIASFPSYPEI
Chain of human cathepsin L (P07711 114-288 limits assumed): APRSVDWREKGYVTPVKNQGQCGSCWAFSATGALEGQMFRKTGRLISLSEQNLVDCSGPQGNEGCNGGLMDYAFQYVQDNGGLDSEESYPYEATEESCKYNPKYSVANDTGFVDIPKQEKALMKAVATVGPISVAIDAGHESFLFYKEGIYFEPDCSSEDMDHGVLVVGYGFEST
Chain of human cathepsin L (P07711 292-333 limits assumed): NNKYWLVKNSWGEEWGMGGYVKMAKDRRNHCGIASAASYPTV
Chain of human cathepsin H (P09668 116-335 limits assumed, other chains not shown): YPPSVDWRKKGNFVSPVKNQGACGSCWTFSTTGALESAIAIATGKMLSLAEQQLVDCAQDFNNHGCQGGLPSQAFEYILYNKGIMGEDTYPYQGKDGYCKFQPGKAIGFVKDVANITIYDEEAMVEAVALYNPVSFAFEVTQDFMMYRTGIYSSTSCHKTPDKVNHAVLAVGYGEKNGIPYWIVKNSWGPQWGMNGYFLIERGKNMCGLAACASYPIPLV

Usually Ki stands for the equilibrium dissociation constant of an inhibitor or competing ligand from its target. On to `CCCC[C@H](NC(=O)O[C@H](Cc1nnc(-c2ccc(F)cc2)o1)C(C)(C)C)C(=O)C(=O)Nc1ccnn1C` (stereo in doubt) [Example 22, (1R)-1-{[5-(4-fluorophenyl)-1,3,4-oxadiazol-2-yl]methyl}-2,2-dimethylpropyl(1S)-1-[[(1-methyl-1H-pyrazol-5-yl)amino](oxo)acetyl]pentyl carbamate], for which the Ki in test [1], in test [2], in test [3] and in test [4] was 100 to 10000 nM in each case.

Consider `CCCC[C@H](NC(=O)O[C@H](Cn1cnc(-c2ccc(C(F)(F)F)cc2)c1)C(C)(C)C)C(=O)C(=O)Nc1ccnn1C1CCC1` [Example 35, (1S)-2,2-dimethyl-1-({4-[4-(trifluoromethyl)phenyl]-1H-imidazol-1-yl}methyl)propyl(1S)-1-[[(1-cyclobutyl-1H-pyrazol-5-yl)amino](oxo)acetyl]pentylcarbamate], for which the Ki in test [1] was in the range of 1 to 100 nM; in test [2], 100 to 10000 nM; in test [5], 100 to 10000 nM; in test [3], 1 to 100 nM; in test [4], 100 to 10000 nM.

For `CCCC[C@H](NC(=O)O[C@H](c1nnc(-c2ccc(C(F)(F)F)cc2)o1)C(C)(C)C)C(=O)C(=O)Nc1ccn[nH]1` [Example 38, (1S)-2,2-dimethyl-1-{5-[4-(trifluoromethyl)phenyl]-1,3,4-oxadiazol-2-yl}propyl(1S)-1-[oxo(1H-pyrazol-5-ylamino)acetyl]pentylcarbamate], the inhibitory constant (Ki) in test [1] was in the range of 1 to 100 nM; in test [2], 1 to 100 nM; in test [5] it was 100 to 10000 nM; in test [3], 1 to 100 nM; in test [4], 1 to 100 nM.

`CCCC[C@H](NC(=O)O[C@H](Cn1cnc(-c2ccc(C(F)(F)F)cc2)c1)C(C)(C)C)C(=O)C(=O)Nc1ccn[nH]1` [Example 7, (1S)-2,2-dimethyl-1-({4-[4-(trifluoromethyl)phenyl]-1H-imidazol-1-yl}methyl)propyl(1S)-1-[oxo(1H-pyrazol-5-ylamino)acetyl]pentylcarbamate]: the Ki in test [1] is 0.01 to 1 nM; in test [2], 1 to 100 nM; in test [5], 100 to 10000 nM; in test [3], 0.01 to 1 nM; in test [4], 1 to 100 nM.

Take `CCCC[C@H](NC(=O)O[C@H](Cn1cnc2cc(Cl)c(Cl)cc21)C(C)(C)C)C(=O)C(=O)Nc1ccn[nH]1` [Example 37, (1S)-1-[(5,6-dichloro-1H-benzimidazol-1-yl)methyl]-2,2-dimethylpropyl(1S)-1-[oxo(1H-pyrazol-5-ylamino)acetyl]pentylcarbamate]: the Ki lay in the range of 0.01 to 1 nM in test [1]; 1 to 100 nM in test [2]; 100 to 10000 nM in test [5]; 0.01 to 1 nM in test [3]; 0.01 to 1 nM in test [4].

With `CCCC[C@H](NC(=O)O[C@H](Cn1ccc(-c2ccc(C(F)(F)F)cc2)n1)C(C)(C)C)C(=O)C(=O)Nc1ccn[nH]1` [Example 1], the Ki in test [1] lay in the range of 0.01 to 1 nM; in test [2], 1 to 100 nM; in test [5] it was 100 to 10000 nM; in test [3], 0.01 to 1 nM; in test [4], 1 to 100 nM.

On to `CCCC[C@H](NC(=O)O[C@H](c1nnc(-c2ccc(C(F)(F)F)cc2)o1)C(C)(C)C)C(=O)C(=O)NN1CCOC1=O` [Example 39, (1S)-2,2-dimethyl-1-{5-[4-(trifluoromethyl)phenyl]-1,3,4-oxadiazol-2-yl}propyl(1S)-1-{oxo[(2-oxo-1,3-oxazolidin-3-yl)amino]acetyl}pentylcarbamate], for which the inhibition constant Ki in test [1] was 1 to 100 nM; in test [2], 1 to 100 nM; in test [5], 100 to 10000 nM; in test [3], 1 to 100 nM; in test [4] it was 1 to 100 nM.

These data come from patent US20050107616A1, “Alpha-ketoamide derivatives as cathepsin k inhibitors” (priority 2001, published 2005).
